In ChEMBL document CHEMBL3046459, “Structural insights for 3H-1, -2, -4 triazolinones as angiotensin II receptor antagonists using QSAR techniques” (Med Chem Res, 2010) one finds logIC50 and IC50 data, which are given here for 53 compounds.

The structures appear in SMILES notation.

The target of one assay is T1, Type-1 angiotensin II receptor (Oryctolagus cuniculus) (UniProt P34976).
T1 sequence (whole entry): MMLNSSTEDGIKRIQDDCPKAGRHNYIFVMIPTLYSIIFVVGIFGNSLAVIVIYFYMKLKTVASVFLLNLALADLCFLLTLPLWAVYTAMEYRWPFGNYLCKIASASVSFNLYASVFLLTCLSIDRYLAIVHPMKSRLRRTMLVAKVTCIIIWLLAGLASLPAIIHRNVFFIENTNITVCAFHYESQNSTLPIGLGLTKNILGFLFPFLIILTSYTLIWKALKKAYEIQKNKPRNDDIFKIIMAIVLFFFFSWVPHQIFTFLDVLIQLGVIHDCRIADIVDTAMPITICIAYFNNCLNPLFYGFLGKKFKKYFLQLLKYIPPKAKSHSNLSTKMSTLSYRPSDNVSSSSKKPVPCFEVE
The experiment in a line: (§1) Antagonist activity at angiotensin 2 type-1 receptor in Oryctolagus cuniculus (rabbit) aorta in presence of bovine serum albumin. The arrangement: unit not given here.
Turning to `CCCCc1nn(Cc2ccc(C(=O)OC)cc2)c(=O)n1Cc1ccc(-c2ccccc2-c2nn[nH]n2)cc1`, the logIC50 was 1.36. Same read-out and setting: the value for `CCCCc1nn(Cc2ccccc2C(=O)OC)c(=O)n1Cc1ccc(-c2ccccc2-c2nn[nH]n2)cc1` was 1.04; that for `CCCCc1nn(Cc2ccccc2)c(=O)n1Cc1ccc(-c2ccccc2-c2nn[nH]n2)cc1` was 0.663. Consider `CCCCc1nn(CC(C)C)c(=O)n1Cc1ccc(-c2ccccc2-c2nn[nH]n2)cc1`, for which the logIC50 was 0.505.

`CCCCc1nn(-c2ccccc2C(F)(F)F)c(=O)n1Cc1ccc(-c2ccccc2-c2nn[nH]n2)cc1`: the logIC50 was 0.0792.

As for `CCCCc1nn(C(C)c2ccccc2)c(=O)n1Cc1ccc(-c2ccccc2-c2nn[nH]n2)cc1` (centres undefined), the logIC50 came to 0.69.

As for `CCCCCc1nn(-c2ccccc2Cl)c(=O)n1Cc1ccc(-c2ccccc2-c2nn[nH]n2)cc1`, the logIC50 stood at 0.756. With `CCCCc1nn(-c2ccccc2Cc2ccccc2)c(=O)n1Cc1ccc(-c2ccccc2-c2nn[nH]n2)cc1`, the logIC50 was found to be 1.04. Turning to `CCCCc1nn(-c2c(F)c(F)c(F)c(F)c2F)c(=O)n1Cc1ccc(-c2ccccc2-c2nn[nH]n2)cc1`, the logIC50 was determined as 1.23. In the case of `CCCCc1nn(-c2cccc(Cl)c2)c(=O)n1Cc1ccc(-c2ccccc2-c2nn[nH]n2)cc1`, the logIC50 was determined as 2.08. Consider `CCCCc1nn(CC(=O)OC)c(=O)n1Cc1ccc(-c2ccccc2-c2nn[nH]n2)cc1`, for which the logIC50 stood at 1.23. Consider `CCCCc1nn(Cc2ccccc2C(=O)O)c(=O)n1Cc1ccc(-c2ccccc2-c2nn[nH]n2)cc1`, for which the logIC50 was 2.69. `CCCCc1nn(-c2ccc(C)cc2)c(=O)n1Cc1ccc(-c2ccccc2-c2nn[nH]n2)cc1`: the logIC50 is 1.2. For `CCCCc1nn(CC)c(=O)n1Cc1ccc(-c2ccccc2-c2nn[nH]n2)cc1`, the logIC50 stood at 1. `CCCCc1nn(-c2cccc(C)c2)c(=O)n1Cc1ccc(-c2ccccc2-c2nn[nH]n2)cc1`: the logIC50 is 1.25. `CCCCc1nn(-c2ccc(OC)cc2[N+](=O)[O-])c(=O)n1Cc1ccc(-c2ccccc2-c2nn[nH]n2)cc1`: the logIC50 is -0.131. The same measure, in the same setting: the value for `CCCCc1nn(-c2ccccc2OC)c(=O)n1Cc1ccc(-c2ccccc2-c2nn[nH]n2)cc1` was 0.82. As to `CCCCc1nn(-c2ccc(Cl)cc2)c(=O)n1Cc1ccc(-c2ccccc2-c2nn[nH]n2)cc1`, the logIC50 came out at 1.84.

As for `CCCCc1nn(CCCC)c(=O)n1Cc1ccc(-c2ccccc2-c2nn[nH]n2)cc1`, the logIC50 was found to be 0.462. Turning to `CCCc1nn(-c2ccccc2Cl)c(=O)n1Cc1ccc(-c2ccccc2-c2nn[nH]n2)cc1`, the logIC50 stood at 1.15. On the same count and under the same terms, the value for `CCCCc1nn(-c2ccccc2Br)c(=O)n1Cc1ccc(-c2ccccc2-c2nn[nH]n2)cc1` was 0.301; that for `CCCCc1nn(Cc2c(F)c(F)c(F)c(F)c2F)c(=O)n1Cc1ccc(-c2ccccc2-c2nn[nH]n2)cc1` was 1.5.

Regarding `CCCCc1nn(-c2ccc(CC)cc2)c(=O)n1Cc1ccc(-c2ccccc2-c2nn[nH]n2)cc1`, the logIC50 came out at 1.43.

For `CCCCc1nn(-c2ccccc2C(C)C)c(=O)n1Cc1ccc(-c2ccccc2-c2nn[nH]n2)cc1`, the logIC50 came to 0.146. Consider `CCCCc1nn(C)c(=O)n1Cc1ccc(-c2ccccc2-c2nn[nH]n2)cc1`, for which the logIC50 came out at 1.84. The same measure, in the same setting: the value for `CCCCc1nn(-c2ccc(OC)cc2)c(=O)n1Cc1ccc(-c2ccccc2-c2nn[nH]n2)cc1` was 0.699; that for `CCCCc1nn(Cc2cccc(C(=O)OC)c2)c(=O)n1Cc1ccc(-c2ccccc2-c2nn[nH]n2)cc1` was 2.04. In the case of `CCCCc1nn(-c2ccccc2N(C)C)c(=O)n1Cc1ccc(-c2ccccc2-c2nn[nH]n2)cc1`, the logIC50 came to 0.505. For the compound `CCCCc1nn(-c2c(Cl)cccc2Cl)c(=O)n1Cc1ccc(-c2ccccc2-c2nn[nH]n2)cc1`, the logIC50 is 0.763. For `CCCCc1nn(-c2ccccc2C(=O)OC)c(=O)n1Cc1ccc(-c2ccccc2-c2nn[nH]n2)cc1`, the logIC50 is 0.748. `CCCCc1nn(C(C(=O)O)c2ccccc2)c(=O)n1Cc1ccc(-c2ccccc2-c2nn[nH]n2)cc1` (centres undefined): the logIC50 was 1.83. As for `CCCCc1nn(-c2cccc([N+](=O)[O-])c2)c(=O)n1Cc1ccc(-c2ccccc2-c2nn[nH]n2)cc1`, the logIC50 is 1.63. For the compound `CCCCc1nn(C(C)CC)c(=O)n1Cc1ccc(-c2ccccc2-c2nn[nH]n2)cc1` (centres undefined), the logIC50 worked out at 0.255.

`CCCCc1nn(-c2ccccc2-c2ccccc2)c(=O)n1Cc1ccc(-c2ccccc2-c2nn[nH]n2)cc1`: the logIC50 is 0.556. Regarding `CCCCc1nn(Cc2ccccc2C)c(=O)n1Cc1ccc(-c2ccccc2-c2nn[nH]n2)cc1`, the logIC50 was 1.04. `CCCCc1nn(-c2ccc(C(=O)OC)cc2)c(=O)n1Cc1ccc(-c2ccccc2-c2nn[nH]n2)cc1`: the logIC50 came out at 1.52. On to `CCCCc1nn(CC2CCCCC2)c(=O)n1Cc1ccc(-c2ccccc2-c2nn[nH]n2)cc1`, for which the logIC50 amounted to 0.462. Regarding `CCCCc1nn(-c2ccccc2F)c(=O)n1Cc1ccc(-c2ccccc2-c2nn[nH]n2)cc1`, the logIC50 is 0.886. Consider `CCCCc1nn(-c2ccc([N+](=O)[O-])cc2)c(=O)n1Cc1ccc(-c2ccccc2-c2nn[nH]n2)cc1`, for which the logIC50 worked out at 1.9. `CCCCc1nn(-c2ccccc2N)c(=O)n1Cc1ccc(-c2ccccc2-c2nn[nH]n2)cc1`: the logIC50 worked out at 2. Turning to `CCCCc1nn(-c2ccccc2C(=O)O)c(=O)n1Cc1ccc(-c2ccccc2-c2nn[nH]n2)cc1`, the logIC50 worked out at 2.06. Take `CCCCc1nn(-c2ccccn2)c(=O)n1Cc1ccc(-c2ccccc2-c2nn[nH]n2)cc1`: the logIC50 was determined as 1.9.

Consider `CCCCc1nn(C(C(=O)OC)c2ccccc2)c(=O)n1Cc1ccc(-c2ccccc2-c2nn[nH]n2)cc1` (centres undefined), for which the logIC50 is 1.08. On to `CCCCCc1nn(-c2ccccc2[N+](=O)[O-])c(=O)n1Cc1ccc(-c2ccccc2-c2nn[nH]n2)cc1`, for which the logIC50 was -0.0315.

For `CCCCc1nnc(O)n1Cc1ccc(-c2ccccc2-c2nn[nH]n2)cc1`, the logIC50 was determined as 1.78. On the same count and under the same terms, the value for `CCCCc1nn(CCC)c(=O)n1Cc1ccc(-c2ccccc2-c2nn[nH]n2)cc1` was 0.914; that for `CCCCc1nn(-c2ccccc2C)c(=O)n1Cc1ccc(-c2ccccc2-c2nn[nH]n2)cc1` was 0.613; that for `CCCCc1nn(-c2ccc(F)cc2)c(=O)n1Cc1ccc(-c2ccccc2-c2nn[nH]n2)cc1` was 1.32.

As to `CCCCc1nn(-c2ccccc2Cl)c(=O)n1Cc1ccc(-c2ccccc2-c2nn[nH]n2)cc1`, the logIC50 amounted to 0.38. Regarding `CCCc1nn(-c2ccccc2[N+](=O)[O-])c(=O)n1Cc1ccc(-c2ccccc2-c2nn[nH]n2)cc1`, the logIC50 turned out to be 0.978.

Consider `CCCCc1nn(-c2cccc(OC)c2)c(=O)n1Cc1ccc(-c2ccccc2-c2nn[nH]n2)cc1`, for which the logIC50 stood at 1.18. With `CCCCc1nn(Cc2cccc(C)c2)c(=O)n1Cc1ccc(-c2ccccc2-c2nn[nH]n2)cc1`, the logIC50 worked out at 1.08.

Consider `CCCCc1nn(C(C)C)c(=O)n1Cc1ccc(-c2ccccc2-c2nn[nH]n2)cc1`, for which the logIC50 came out at 0.886.

The next assay has as its target T2, Type-1 angiotensin II receptor (Oryctolagus cuniculus, UniProt P34976).
T2 sequence (P34976 whole entry): T1 sequence (whole entry)
Described as §1.
As usually defined, the IC50 is the concentration that gives 50% inhibition. On to `CCCCc1nn(Cc2c(F)c(F)c(F)c(F)c2F)c(=O)n1Cc1ccc(-c2ccccc2-c2nn[nH]n2)cc1`, for which the concentration for half-maximal inhibition (IC50) turned out to be 6 nM.
